Reference: US20250230193A1, “CYCLIC COMPOUND HAVING SELECTIVE KRAS INHIBITORY EFFECT ON HRAS AND NRAS” (CHUGAI SEIYAKU KABUSHIKI KAISHA, priority 2022, published 2025)

Columns and labels:
[1] = biological target: GDP-bound NRAS wild-type protein (Homo sapiens, UniProt P01111); experiment: Binding to NRAS by surface plasmon resonance (SPR), Single Cycle Kinetics; settings: KD ratio, GDP-bound NRAS wild-type vs GDP-bound KRAS wild-type, SPR
[2] = biological target: GDP-bound HRAS wild-type protein (Homo sapiens, UniProt P01112); experiment: Binding to HRAS by surface plasmon resonance (SPR), Single Cycle Kinetics; settings: KD ratio, GDP-bound HRAS wild-type vs GDP-bound KRAS wild-type, SPR
Sequence of GDP-bound HRAS wild-type protein (P01112 whole entry): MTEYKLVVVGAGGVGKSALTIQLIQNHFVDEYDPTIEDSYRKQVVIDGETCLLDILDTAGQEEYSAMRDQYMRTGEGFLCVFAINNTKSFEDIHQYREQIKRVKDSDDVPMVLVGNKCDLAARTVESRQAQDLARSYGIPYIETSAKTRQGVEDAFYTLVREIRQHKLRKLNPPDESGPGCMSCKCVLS

Sequence of GDP-bound NRAS wild-type protein (P01111 whole entry): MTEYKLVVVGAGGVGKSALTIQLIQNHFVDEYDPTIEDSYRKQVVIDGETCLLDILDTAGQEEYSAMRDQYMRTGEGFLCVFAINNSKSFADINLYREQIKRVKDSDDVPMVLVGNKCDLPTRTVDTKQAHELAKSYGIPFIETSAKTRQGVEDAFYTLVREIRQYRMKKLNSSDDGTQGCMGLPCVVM

Row | SMILES | NRAS/KRAS (ratio of KD value for NRAS to KD value for KRAS) [1] | HRAS/KRAS (ratio of KD value for HRAS to KD value for KRAS) [2]
1 | CCO[C@@H]1C[C@H]2C(=O)NC3(CC(C)(C)C3)C(=O)N(C)[C@@H](C3CCCC3)C(=O)N(C)[C@H](C(=O)N(C)C)CC(=O)N(C)[C@@H](CC3CCC3)C(=O)N[C@@H]([C@@H](C)CC)C(=O)N(C)CC(=O)N(C)[C@H]3C/C=C\CCN(C3=O)[C@@H](Cc3ccc(C(F)(F)F)cc3)C(=O)N(C)CC(=O)N[C@@H](CCc3cc(F)c(C(F)(F)F)c(F)c3)C(=O)N2C1 [PP1651] | A (a compound having 10 or more and less than 20 is denoted as A) | B (a compound having 3 or more and less than 10 is denoted as B)
2 | CCO[C@@H]1C[C@H]2C(=O)NC3(CC(C)(C)C3)C(=O)N(C)[C@@H](C3CCCC3)C(=O)N(C)[C@H](C(=O)N(C)CC)CC(=O)N(C)[C@@H](CC)C(=O)N[C@@H]([C@@H](C)CC)C(=O)N(C)CC(=O)N(C)[C@H]3C/C=C\CCN(C3=O)[C@@H](Cc3ccc(C(F)(F)F)cc3)C(=O)N(C)CC(=O)N[C@@H](CCc3ccc(C(F)(F)F)c(OC)c3)C(=O)N2C1 [PP1653] | A (a compound having 10 or more and less than 20 is denoted as A) | A (a compound having 10 or more and less than 20 is denoted as A)
3 | CCCN(C)C(=O)[C@@H]1CC(=O)N(C)[C@@H](CC)C(=O)N[C@@H]([C@@H](C)CC)C(=O)N(C)CC(=O)N(C)[C@H]2C/C=C\CCN(C2=O)[C@@H](Cc2ccc(C(F)(F)F)cc2)C(=O)N(C)CC(=O)N[C@@H](CCc2ccc(C(F)(F)F)c(OC)c2)C(=O)N2C[C@H](OCC)C[C@H]2C(=O)NC2(CC(C)(C)C2)C(=O)N(C)[C@@H](C2CCCC2)C(=O)N1C [PP1654] | A (a compound having 10 or more and less than 20 is denoted as A) | A (a compound having 10 or more and less than 20 is denoted as A)
4 | CCO[C@@H]1C[C@H]2C(=O)NC3(CC(C)(C)C3)C(=O)N(C)[C@@H](C3CCCC3)C(=O)N(C)[C@H](C(=O)N(C)CC)CC(=O)N(C)[C@@H](CC(F)F)C(=O)N[C@@H]([C@@H](C)CC)C(=O)N(C)CC(=O)N(C)[C@H]3C/C=C\CCN(C3=O)[C@@H](Cc3ccc(C(F)(F)F)cc3)C(=O)N(C)CC(=O)N[C@@H](CCc3ccc(C(F)(F)F)c(OC)c3)C(=O)N2C1 [PP1655] | A (a compound having 10 or more and less than 20 is denoted as A) | A (a compound having 10 or more and less than 20 is denoted as A)
5 | CCCN(C)C(=O)[C@@H]1CC(=O)N(C)[C@@H](COC)C(=O)N[C@@H]([C@@H](C)CC)C(=O)N(C)CC(=O)N(C)[C@H]2C/C=C\CCN(C2=O)[C@@H](Cc2ccc(C(F)(F)F)cc2)C(=O)N(C)CC(=O)N[C@@H](CCc2ccc(C(F)(F)F)c(OC)c2)C(=O)N2C[C@H](OCC)C[C@H]2C(=O)NC2(CC(C)(C)C2)C(=O)N(C)[C@@H](C2CCCC2)C(=O)N1C [PP1656] | AA (a compound having 20 or more is denoted as AA) | A (a compound having 10 or more and less than 20 is denoted as A)
6 | CCCOC[C@H]1C(=O)N[C@@H]([C@@H](C)CC)C(=O)N(C)CC(=O)N(C)[C@H]2C/C=C\CCN(C2=O)[C@@H](Cc2ccc(C(F)(F)F)cc2)C(=O)N(C)CC(=O)N[C@@H](CCc2ccc(C(F)(F)F)c(OC)c2)C(=O)N2C[C@H](OCC)C[C@H]2C(=O)NC2(CC(C)(C)C2)C(=O)N(C)[C@@H](C2CCCC2)C(=O)N(C)[C@H](C(=O)N(C)C)CC(=O)N1C [PP1657] | A (a compound having 10 or more and less than 20 is denoted as A) | B (a compound having 3 or more and less than 10 is denoted as B)
7 | CC[C@H](C)[C@@H]1NC(=O)[C@H](CC(F)F)N(C)C(=O)C[C@@H](C(=O)N(C)C)N(C)C(=O)[C@H](C2CCCC2)N(C)C(=O)C2(CC(C)(C)C2)NC(=O)[C@@H]2C[C@H](C)CN2C(=O)[C@H](CCc2cc(F)c(C(F)(F)F)c(F)c2)NC(=O)CN(C)C(=O)[C@H](Cc2ccc(C(F)(F)F)cc2)N2CC/C=C\C[C@@H](C2=O)N(C)C(=O)CN(C)C1=O [PP1658] | A (a compound having 10 or more and less than 20 is denoted as A) | A (a compound having 10 or more and less than 20 is denoted as A)
8 | CCCC[C@H]1C(=O)N[C@@H]([C@@H](C)CC)C(=O)N(C)CC(=O)N(C)[C@H]2C/C=C\CCN(C2=O)[C@@H](Cc2ccc(C(F)(F)F)cc2)C(=O)N(C)CC(=O)N[C@@H](CCc2cc(F)c(C(F)(F)F)c(F)c2)C(=O)N2C[C@@H](C)C[C@H]2C(=O)NC2(CC(C)(C)C2)C(=O)N(C)[C@@H](C2CCCC2)C(=O)N(C)[C@H](C(=O)N(C)C)CC(=O)N1C [PP1661] | A (a compound having 10 or more and less than 20 is denoted as A) | A (a compound having 10 or more and less than 20 is denoted as A)
9 | CC[C@H](C)[C@@H]1NC(=O)[C@H](CC(C)C)N(C)C(=O)C[C@@H](C(=O)N(C)C)N(C)C(=O)[C@H](C2CCCC2)N(C)C(=O)C2(CC(C)(C)C2)NC(=O)[C@@H]2C[C@H](C)CN2C(=O)[C@H](CCc2cc(F)c(C(F)(F)F)c(F)c2)NC(=O)CN(C)C(=O)[C@H](Cc2ccc(C(F)(F)F)cc2)N2CC/C=C\C[C@@H](C2=O)N(C)C(=O)CN(C)C1=O [PP1662] | A (a compound having 10 or more and less than 20 is denoted as A) | B (a compound having 3 or more and less than 10 is denoted as B)
10 | CCCN(C)C(=O)[C@@H]1CC(=O)N(C)[C@@H](C)C(=O)N[C@@H]([C@@H](C)CC)C(=O)N(C)CC(=O)N(C)[C@H]2C/C=C\CCN(C2=O)[C@@H](Cc2ccc(C(F)(F)F)cc2)C(=O)N(C)CC(=O)N[C@@H](CCc2cc(F)c(C(F)(F)F)c(F)c2)C(=O)N2C[C@H](F)C[C@H]2C(=O)NC2(CC(C)(C)C2)C(=O)N(C)[C@@H](C2CCCC2)C(=O)N1C [PP1663] | AA (a compound having 20 or more is denoted as AA) | A (a compound having 10 or more and less than 20 is denoted as A)
11 | CCCN(C)C(=O)[C@@H]1CC(=O)N(C)[C@@H](CC2CC2)C(=O)N[C@@H]([C@@H](C)CC)C(=O)N(C)CC(=O)N(C)[C@H]2C/C=C\CCN(C2=O)[C@@H](Cc2ccc(C(F)(F)F)cc2)C(=O)N(C)CC(=O)N[C@@H](CCc2cc(F)c(C(F)(F)F)c(F)c2)C(=O)N2C[C@H](F)C[C@H]2C(=O)NC2(CC(C)(C)C2)C(=O)N(C)[C@@H](C2CCCC2)C(=O)N1C [PP1665] | AA (a compound having 20 or more is denoted as AA) | A (a compound having 10 or more and less than 20 is denoted as A)
12 | CCCN(C)C(=O)[C@@H]1CC(=O)N(C)[C@@H](C)C(=O)N[C@@H]([C@@H](C)CC)C(=O)N(C)CC(=O)N(C)[C@H]2C/C=C\CCN(C2=O)[C@@H](Cc2ccc(C(F)(F)F)cc2)C(=O)N(C)CC(=O)N[C@@H](CCc2cc(F)c(C(F)(F)F)c(F)c2)C(=O)N2C[C@H](OCC)C[C@H]2C(=O)NC2(CCC2)C(=O)N(C)[C@@H](C2CCCC2)C(=O)N1C [PP1666] | A (a compound having 10 or more and less than 20 is denoted as A) | A (a compound having 10 or more and less than 20 is denoted as A)
13 | CCO[C@@H]1C[C@H]2C(=O)NC3(CCC3)C(=O)N(C)[C@@H](C3CCCC3)C(=O)N(C)[C@H](C(=O)N(C)CC)CC(=O)N(C)[C@@H](CC3CCC3)C(=O)N[C@@H]([C@@H](C)CC)C(=O)N(C)CC(=O)N(C)[C@H]3C/C=C\CCN(C3=O)[C@@H](Cc3ccc(C(F)(F)F)cc3)C(=O)N(C)CC(=O)N[C@@H](CCc3cc(F)c(C(F)(F)F)c(F)c3)C(=O)N2C1 [PP1667] | A (a compound having 10 or more and less than 20 is denoted as A) | A (a compound having 10 or more and less than 20 is denoted as A)
14 | CCCOC[C@H]1C(=O)N[C@@H]([C@@H](C)CC)C(=O)N(C)CC(=O)N(C)[C@H]2C/C=C\CCN(C2=O)[C@@H](Cc2ccc(C(F)(F)F)cc2)C(=O)N(C)CC(=O)N[C@@H](CCc2cc(F)c(C(F)(F)F)c(F)c2)C(=O)N2C[C@H](OCC)C[C@H]2C(=O)NC2(CCC2)C(=O)N(C)[C@@H](C2CCCC2)C(=O)N(C)[C@H](C(=O)N(C)CCC)CC(=O)N1C [PP1668] | A (a compound having 10 or more and less than 20 is denoted as A) | A (a compound having 10 or more and less than 20 is denoted as A)
15 | CCCN(C)C(=O)[C@@H]1CC(=O)N(C)[C@@H](CC)C(=O)N[C@@H]([C@@H](C)CC)C(=O)N(C)CC(=O)N(C)[C@H]2C/C=C\CCN(C2=O)[C@@H](Cc2ccc(C(F)(F)F)cc2)C(=O)N(C)CC(=O)N[C@@H](CCc2cc(F)c(C(F)(F)F)c(F)c2)C(=O)N2C[C@H](OCC)C[C@H]2C(=O)NC2(CC(C)(C)C2)C(=O)N(C)[C@@H](C2CCCC2)C(=O)N1C [PP1670] | A (a compound having 10 or more and less than 20 is denoted as A) | A (a compound having 10 or more and less than 20 is denoted as A)
16 | CCO[C@@H]1C[C@H]2C(=O)NC3(CC(C)(C)C3)C(=O)N(C)[C@@H](C3CCCC3)C(=O)N(C)[C@H](C(=O)N(C)CC)CC(=O)N(C)[C@@H](COC)C(=O)N[C@@H]([C@@H](C)CC)C(=O)N(C)CC(=O)N(C)[C@H]3C/C=C\CCN(C3=O)[C@@H](Cc3ccc(C(F)(F)F)cc3)C(=O)N(C)CC(=O)N[C@@H](CCc3cc(F)c(C(F)(F)F)c(F)c3)C(=O)N2C1 [PP1671] | A (a compound having 10 or more and less than 20 is denoted as A) | A (a compound having 10 or more and less than 20 is denoted as A)
